Read-outs that look alike come from different tables or passages of the source.

In one data set the test system is A549. The data set is described as follows: MTS cell viability (cytotoxicity) assay, 2D cell culture. Format: cell-based. Particulars: Homo sapiens, A549, 2D cell culture, 72 h, ±SD, N = 2, read-out: IC50 antitumor activity A549 2D. As to the method:
(§1) Compounds are diluted 1:3. 500 nL (for 2 D cell culture) or 400 nL (for 3 D cell culture) of compound were transferred from mother plate to test plate by using Mosquito (TTP labtech). DMSO percentage in test concentrations was 0.5 − 1.0%. Starting concentration of the test compounds and standard compound doxorubicin was 50 µM (2 D cell culture) or 100 µM (3 D cell culture).
(§2) Cells were grown in 96 well cell star polystyrene plates. 10,000 cells/well were seeded in wells 4 h prior the treatment with different compounds concentrations and incubated for 72 h. A cell viability assay was performed according to the manufacturer’s instruction, using CellTiter 96 aqueous solution, MTS kit (Promega, Madison, WI, USA). After 0.5–2 h of cell incubation with MTS in 2 D cell culture, the plates were read using PE EnVision absorbance at 490 nm. […] Since we prefer homogeneous assays (mix and read procedures) and therefore MTS is more practical (one step less than MTT). MTS is more sensitive and accurate in comparison with MTT assay.
(§3) Calculation of IC50 data, curves and QC analysis is made by using Excel tools and GraphPadPrism software (La Jolla, CA), v. […] QC criteria parameters (Z', S:B, R2, HillSlope) were checked for every IC50 curve.

For another data set, the system named is HCC827. The data set is described as above. Format: cell-based. Particulars: Homo sapiens; HCC827, 2D cell culture, 72 h, MTS; ±SD, N = 2; read-out: IC50 antitumor activity HCC827 2D. As for the experimental part: as §1, §2, §3
In data set [1] the test system is NCI-H358. The data set is described as above. Format: cell-based. Particulars: Homo sapiens; NCI-H358, 2D cell culture, 72 h, MTS; ±SD, N = 2; read-out: IC50 antitumor activity NCI-H358 2D. As for the experimental part:
as §1, §2, §3

The test system of data set [2] is NCI-H358. The data set is described as follows: Cell viability assay, 3D hanging drop cell culture (CellTiter GLO 3D). Format: cell-based. Particulars: Homo sapiens; NCI-H358, 3D hanging drop cell culture, 72 h; ±SD, N = 2; read-out: IC50 antitumor activity NCI-H358 3D. As to the method:
as §1
Cells were grown in 96 well Perfecta 3 D hanging drop plates 5000 cell/well for 4 days until spheres were formed (and checked under the microscope). After sphere formation cells were treated with compounds followed by 72 h incubation. Cell viability assay was performed according to the manufacturer’s instruction, using CellTiter GLO 3 D for 3 D cell culture (Promega); cell incubation was 5 min on the shaker followed by 25 min incubation in the dark. Plates were read using PE EnVision luminescence.
as §3

Data set [3] is described as follows: Chromatographic lipophilicity study (Chrom logD7.4). In kind it is physicochemical. The note with it: gradient reverse-phase HPLC (Phenomenex Luna C18 column); pH 7.4, gradient reverse-phase HPLC, from CHI7.4. As to the method:
In order to determine the lipophilicity range, Chromatographic Hydrophobicity Index was measured by gradient reverse-phase HPLC at physiological pH. Sample working solutions were prepared from 10 mM DMSO stock solutions by dilution with acetonitrile to a final concentration of 1.25 mM and analysed on Agilent 1100 Series liquid chromatography system with HPLC diode-array detector (DAD) coupled with Micromass Quattro micro API mass spectrometer. Samples were injected onto an HPLC column (Phenomenex Luna C18, 50 × 3 mm, 5 µm) and eluted with a gradient at room temperature (sample temperature 15 °C). The mobile phase was composed of 50 mM Ammonium acetate, pH = 7.4 and acetonitrille. A total run time was 5 min, with the flow rate of 1 ml/min (under gradient conditions). The HPLC system was initially calibrated using the calibration set of 10 compounds with literature CHI values. The experimentally determined gradient retention times were plotted against the CHI7.4 values published in the literature resulting in the equation obtained from linear regression analysis. This equation was further used for the calculation of CHI7.4 for test compounds from determined retention times of the main chromatographic peak from UV chromatogram for each compound. The obtained CHI7.4 values were further converted to Chrom log D7.4 as follows: CHI7.4 × 0.0857 − 2.

Data set [4] is described as follows: Plasma protein binding, equilibrium dialysis. In kind it is in vitro ADME. Particulars: for fraction unbound at 4 h, 5 µM: equilibrium dialysis 4 h, 37 °C; for recovery at 4 h, 5 µM: recovery in PPB experiment (value in brackets). As for the experimental part: The extent of binding to plasma proteins was assessed using equilibrium dialysis method. Plasma (human and mouse) was spiked with test compounds and three controls (nicardipine and verapamil in both species, acebutolol in human and caffeine in mouse plasma) to obtain final concentration of 5 µM (0.5%DMSO). Hydrated membranes were inserted into equilibrium dialysis unit (HT Dialysis) according to manufacturer’s instructions. The dialysate side was then loaded with appropriate volume of buffer, while the same volume of spiked plasma was added into sample side of the well. Incubation lasted 4 h at 37 °C with gentle shaking. Afterwards, protein precipitation was done by mixing matrix matched aliquot of plasma or buffer with 3 volumes of MeCN/MeOH (2:1) mixture, containing internal standard (diclofenac). After centrifugation (at 4500 rpm, at 4 °C, for 30 min) resulting supernatants were subjected to LC-MS/MS.
All ADME samples were analysed on a Sciex API 4000 or Sciex API4500 Triple Quadrupole Mass Spectrometer (Sciex, Framingham, MA, USA) coupled to a UHPLC System (Shimadzu Nexera X2; Shimadzu, Kyoto, Japan). Samples were injected onto an UPLC column (HALO2 C18, 2.1 × 20 mm, 2 µm or Phenomenex Luna Omega Polar C18, 30 × 2.1 mm, 1.6 µm) and eluted with a gradient at temperature of 50 °C. The mobile phase was composed of acetonitrile (with 0.1% formic acid) and 0.1% formic acid in deionised water. A total run time was 1 or 1.5 min, with the flow rate of 0.7 ml/min (under gradient conditions). A positive ion mode with turbo spray, an ion source temperature of 500 °C and a dwell time of 150 ms were utilised for mass spectrometric detection. Multiple reaction monitoring (MRM) was used at the specific transitions for each compound/control tested: compound 5c: 361.9 → 304.9; compound 5d: 344.8 → 287.9; compound 5e: 349.8 → 292.9; compound 5 g: 350.8 → 293.9; compound 5 h: 344.0 → 286.9; compound 6a: 276.9 → 220.0; compound 5 b: 319.0 → 262.0; compound 6 b: 302.1 → 245.1; compound 6c: 344.9 → 288.0; compound 6d: 333.0 → 276.0; compound 6e: 316.1 → 259.0; compound 6f: 327.1 → 270.0; compound 6 g: 377.1 → 320.1; testosterone: 289.3→ 97.1; propranolol: 260.1 → 182.8; caffeine: 195.2 → 138.1; acebutolol: 337.2 → 116.2, nicardipine: 480.2 → 315.0; verapamil: 455.4 → 165.1; amprenavir: 506.2 → 245.4; diclofenac: 296.1 → 213.7 or 296.2 → 215.3; eucatropine: 292.2 → 109.1; benfluorex: 352.1 → 230.3, and warfarin: 309.2 → 163.2
(In general: In equilibrium dialysis only unbound substance equilibrates across the membrane.)

The mark [5] stands for this setting: human plasma, read-out: PPB % bound, Human (converted).
Where [6] appears, read: mouse plasma, read-out: PPB % bound, Mouse (converted).

As a reminder, the IC50 is the concentration at which inhibition is half-maximal. As usually defined, the chromatographic logD is lipophilicity estimated from chromatographic retention. A lower chromatographic logD goes with lower lipophilicity. For the compound `Cl.N#Cc1ccc(-c2nc3ccc(C4=NCCCN4)cc3s2)cc1` [Compound 5b, 2–(4-Cyanophenyl)-6–(3,4,5,6-tetrahydropyrimidin-1-ium-2-yl)benzothiazole chloride], the IC50 was greater than 50 µM with A549, greater than 50 µM in the data set with HCC827, greater than 50 µM with NCI-H358 [1] and greater than 100 µM in the data set with NCI-H358 [2]. Besides, the chromatographic logD in data set [3] stood at 2.18. In addition, the results for the fraction unbound at 4 h, 5 µM in data set [4] (setting [5]) and in data set [4] (setting [6]) were 0.334 and 0.249, respectively. In addition, the recovery at 4 h, 5 µM in data set [4] (human plasma) was 93%; in data set [4] (mouse plasma) it was 98%.

As for `Cl.FC(F)(F)c1ccc(-c2nc3ccc(C4=NCCCN4)cc3s2)cc1` [Compound 5c, 2–(4-Trifluoromethylphenyl)-6–(3,4,5,6-tetrahydropyrimidin-1-ium-2-yl)benzothiazole chloride], the IC50 in the data set with A549 turned out to be 34 ± 8.65 µM; in the data set on HCC827, 7 ± 0.45 µM; in the data set on NCI-H358 [1] it was 23 ± 0.79 µM; in the data set on NCI-H358 [2], 34 ± 0.7 µM. Also, the chromatographic logD in data set [3] came to 3.31. The fraction unbound at 4 h, 5 µM in data set [4] (setting [5]) was 0.03; in data set [4] (setting [6]), 0.025. Moreover, the recovery at 4 h, 5 µM in data set [4] (human plasma) was 89%; in data set [4] (mouse plasma) it was 86%.

For `Cl.c1ccc2nc(-c3nc4ccc(C5=NCCCN5)cc4s3)ccc2c1` [Compound 5d, 2-(Quinoline-2-yl)-6–(3,4,5,6-tetrahydropyrimidin-1-ium-2-yl)benzothiazole chloride], the IC50 is greater than 50 µM in the data set with A549, 14 ± 2.09 µM with HCC827, 20 ± 2.53 µM in the data set on NCI-H358 [1] and 40 ± 4.89 µM in the data set on NCI-H358 [2]. The compound also yielded a chromatographic logD in data set [3] of 2.87. Moreover, the fraction unbound at 4 h, 5 µM in data set [4] (setting [5]) was 0.053; in data set [4] (setting [6]) it was 0.04. Further, the recovery at 4 h, 5 µM in data set [4] (human plasma) stood at 76%; in data set [4] (mouse plasma), 82%.

On to `Cl.c1ccc2sc(-c3nc4ccc(C5=NCCCN5)cc4s3)cc2c1` [Compound 5e, 2-(Benzo[b]thiophen-2-yl)-6–(3,4,5,6-tetrahydropyrimidin-1-ium-2-yl)benzothiazole chloride], for which the IC50 is 36 ± 6.37 µM with A549, 7 ± 0.12 µM in the data set on HCC827, 16 ± 0.98 µM with NCI-H358 [1] and 34 ± 0.16 µM in the data set on NCI-H358 [2]. Moreover, in data set [3], the chromatographic logD is 3.19. The fraction unbound at 4 h, 5 µM in data set [4] (setting [5]) was 0.021; in data set [4] (setting [6]) it was 0.013. Also, the values for the recovery at 4 h, 5 µM in data set [4] (human plasma) and in data set [4] (mouse plasma) were 79% and 82%, respectively.

Turning to `Cl.c1ccc2sc(-c3nc4ccc(C5=NCCCN5)cc4s3)nc2c1` [Compound 5g, 2-(Benzothiazole-2-yl)-6–(3,4,5,6-tetrahydropyrimidin-1-ium-2-yl)benzothiazole chloride], the IC50 in the data set on A549 stood at 41 ± 0.54 µM; in the data set on HCC827, 19 ± 2.21 µM; in the data set with NCI-H358 [1], 26 ± 0.3 µM; with NCI-H358 [2], 31 ± 0.05 µM. For the same compound, in data set [3], the chromatographic logD is 2.71. The fraction unbound at 4 h, 5 µM in data set [4] (setting [5]) is 0.049; in data set [4] (setting [6]) it was 0.04. Moreover, the recovery at 4 h, 5 µM is 94% in data set [4] (human plasma) and 85% in data set [4] (mouse plasma).

`Cl.c1ccc2cc(-c3nc4ccc(C5=NCCCN5)cc4s3)ccc2c1` [Compound 5h, 2-(Naphthalene-2-yl)-6–(3,4,5,6-tetrahydropyrimidin-1-ium-2-yl)benzothiazole chloride]: the IC50 with A549 worked out at 38 ± 3.68 µM; in the data set on HCC827, 6 ± 0.05 µM; with NCI-H358 [1], 10 ± 1 µM; in the data set with NCI-H358 [2] it was 31 ± 0.33 µM. Moreover, the chromatographic logD in data set [3] came to 3.31. The fraction unbound at 4 h, 5 µM in data set [4] (setting [5]) was 0.024; in data set [4] (setting [6]), 0.027. Further, the recovery at 4 h, 5 µM in data set [4] (human plasma) stood at 80%; in data set [4] (mouse plasma), 85%.

Values taken from paper PMC7801115, “Preclinical in vitro screening of newly synthesised amidino substituted benzimidazoles and benzothiazoles” (Journal of Enzyme Inhibition and Medicinal Chemistry, 2021).
